Measured values from the supplement of paper PMC10627819.

Experiments:
S. pneumoniae D39V [1] = assay: Bliss interaction score (quartile over a dose matrix) (fitness difference); higher = more antagonism (negative = synergy)
How it was run: (§1)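 Fitness is OD595 at stationary-phase entry relative to the plate's robust no-drug mean, capped at 1. Single-drug fitness was inferred from combinations. The Bliss score is observed minus product-expected fitness, summarised by quartiles over technical, biological and donor/recipient replicates.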

B. subtilis 168 = assay: as above
How it was run: as §1

S. aureus DSM 20231 [2] = assay: as above
How it was run: as §1

S. aureus Newman [3] = assay: as above
How it was run: as §1

S. pneumoniae D39V [4] = assay: fitness (endpoint OD595 vs no drug) (fraction); higher = more growth
How it was run: (§2)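 Growth medium was TSB, LB Lennox or CY, and plates were kept at 37 °C. Inoculation was at OD595 0.01 in 384-well plates, at 30 µl per well or 55 µl for S. pneumoniae. OD595 was monitored every 30 min for 14 h and background-subtracted using the first reading. Fitness is the optical density on entering stationary phase divided by the robust mean of no-drug controls, with values capped at 1.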

S. aureus DSM 20231 [5] = assay: as above
How it was run: as §2

S. aureus Newman [6] = assay: as above
How it was run: as §2
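For Bliss interaction score (quartile over a dose matrix) in this document: first quartile when negative (synergy) and third quartile when positive (antagonism).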

COc1cccc2c1C(=O)c1c(O)c3c(c(O)c1C2=O)C[C@@](O)(C(=O)CO)C[C@@H]3O[C@H]1C[C@H](N)[C@H](O)[C@H](C)O1 [Doxorubicin] + CN[C@H](CC(C)C)C(=O)N[C@H]1C(=O)N[C@@H](CC(N)=O)C(=O)N[C@H]2C(=O)N[C@H]3C(=O)N[C@H](C(=O)N[C@H](C(=O)O)c4cc(O)cc(O)c4-c4cc3ccc4O)[C@H](O)c3ccc(c(Cl)c3)Oc3cc2cc(c3O[C@@H]2O[C@H](CO)[C@@H](O)[C@H](O)[C@H]2O[C@H]2C[C@](C)(N)[C@H](O)[C@H](C)O2)Oc2ccc(cc2Cl)[C@H]1O [Vancomycin]
Details	Bliss interaction score
B. subtilis 168	-0.0982
S. aureus DSM 20231 [2]	-0.0449
S. aureus Newman [3]	-0.0426
S. pneumoniae D39V [1]	0.048

Details	fitness
S. aureus DSM 20231 [5], first compound 0.625 µg/mL, partner 0.1875 µg/mL	0.843
S. aureus DSM 20231 [5], first compound 0.625 µg/mL, partner 0.375 µg/mL	0.869
S. aureus DSM 20231 [5], first compound 0.625 µg/mL, partner 0.75 µg/mL	0.888
S. aureus DSM 20231 [5], first compound 1.25 µg/mL, partner 0.1875 µg/mL	0.84
S. aureus DSM 20231 [5], first compound 1.25 µg/mL, partner 0.375 µg/mL	0.927
S. aureus DSM 20231 [5], first compound 1.25 µg/mL, partner 0.75 µg/mL	0.894
S. aureus DSM 20231 [5], first compound 2.5 µg/mL, partner 0.1875 µg/mL	0.787
S. aureus DSM 20231 [5], first compound 2.5 µg/mL, partner 0.375 µg/mL	0.952
S. aureus DSM 20231 [5], first compound 2.5 µg/mL, partner 0.75 µg/mL	0.907
S. aureus Newman [6], first compound 0.625 µg/mL, partner 0.1875 µg/mL	0.849
S. aureus Newman [6], first compound 0.625 µg/mL, partner 0.375 µg/mL	0.825
S. aureus Newman [6], first compound 0.625 µg/mL, partner 0.75 µg/mL	0.851
S. aureus Newman [6], first compound 1.25 µg/mL, partner 0.1875 µg/mL	0.823
S. aureus Newman [6], first compound 1.25 µg/mL, partner 0.375 µg/mL	0.814
S. aureus Newman [6], first compound 1.25 µg/mL, partner 0.75 µg/mL	0.794
S. aureus Newman [6], first compound 2.5 µg/mL, partner 0.1875 µg/mL	0.764
S. aureus Newman [6], first compound 2.5 µg/mL, partner 0.375 µg/mL	0.745
S. aureus Newman [6], first compound 2.5 µg/mL, partner 0.75 µg/mL	0.731
S. pneumoniae D39V [4], first compound 0.25 µg/mL, partner 0.03125 µg/mL	0.92
S. pneumoniae D39V [4], first compound 0.25 µg/mL, partner 0.0625 µg/mL	0.851
S. pneumoniae D39V [4], first compound 0.25 µg/mL, partner 0.125 µg/mL	0.88
S. pneumoniae D39V [4], first compound 0.25 µg/mL, partner 0.5 µg/mL	0.0816
S. pneumoniae D39V [4], first compound 0.5 µg/mL, partner 0.03125 µg/mL	0.924
S. pneumoniae D39V [4], first compound 0.5 µg/mL, partner 0.0625 µg/mL	0.898
S. pneumoniae D39V [4], first compound 0.5 µg/mL, partner 0.125 µg/mL	0.913
S. pneumoniae D39V [4], first compound 0.5 µg/mL, partner 0.5 µg/mL	0.0725
S. pneumoniae D39V [4], first compound 1 µg/mL, partner 0.03125 µg/mL	0.865
S. pneumoniae D39V [4], first compound 1 µg/mL, partner 0.0625 µg/mL	0.8
S. pneumoniae D39V [4], first compound 1 µg/mL, partner 0.25 µg/mL	0.377
S. pneumoniae D39V [4], first compound 1 µg/mL, partner 0.5 µg/mL	0.0604

Cc1ncc([N+](=O)[O-])n1CCO [Metronidazole] + CCCCCCCCCC(=O)N[C@@H]1[C@H]([C@@H]([C@H](O[C@H]1OC2=C3C=C4C=C2OC5=C(C=C(C=C5)[C@H]([C@H]6C(=O)N[C@@H](C7=C(C(=CC(=C7)O)OC8[C@H]([C@H]([C@@H]([C@H](O8)CO)O)O)O)C9=C(C=CC(=C9)[C@H](C(=O)N6)NC(=O)[C@@H]4NC(=O)[C@@H]1C2=CC(=CC(=C2)OC2=C(C=CC(=C2)[C@H](C(=O)N[C@H](CC2=CC(=C(O3)C=C2)Cl)C(=O)N1)N)O)O)O)C(=O)O)O[C@H]1[C@@H]([C@H]([C@@H]([C@H](O1)CO)O)O)NC(=O)C)Cl)CO)O)O [Teicoplanin]
main component drawn
Details	Bliss interaction score
B. subtilis 168	0.0689
S. aureus DSM 20231 [2]	0.0308
S. aureus Newman [3]	0.0581
S. pneumoniae D39V [1]	0.126

fitness, main component drawn
Details	first compound 0.625 µg/mL	first compound 1.25 µg/mL	first compound 2.5 µg/mL
S. aureus DSM 20231 [5], partner 0.1562 µg/mL	0.967	≥ 1	≥ 1
S. aureus DSM 20231 [5], partner 0.3125 µg/mL	≥ 1	≥ 1	≥ 1
S. aureus DSM 20231 [5], partner 0.625 µg/mL	≥ 1	≥ 1	≥ 1
S. aureus Newman [6], partner 0.1562 µg/mL	0.976	0.979	–
S. aureus Newman [6], partner 0.3125 µg/mL	0.988	0.973	0.933
S. aureus Newman [6], partner 0.625 µg/mL	0.927	0.925	0.752

fitness, S. aureus Newman [6], one replicate, main component drawn
Details	first compound 0.625 µg/mL	first compound 0.781 µg/mL	first compound 1.25 µg/mL	first compound 1.562 µg/mL	first compound 2.5 µg/mL	first compound 3.124 µg/mL
partner 0.1562 µg/mL	–	≥ 1	–	≥ 1	–	≥ 1
partner 0.3125 µg/mL	–	≥ 1	–	0.961	–	0.989
partner 0.62 µg/mL	0.82	–	0.795	–	0.81	–
partner 0.625 µg/mL	–	0.845	–	0.805	–	0.836
partner 1.24 µg/mL	0.745	–	0.774	–	0.76	–
partner 2.48 µg/mL	0.492	–	0.505	–	0.486	–

COc1ccc(C[C@H](N)C(=O)N[C@H]2[C@@H](O)[C@H](n3cnc4c(N(C)C)ncnc43)O[C@@H]2CO)cc1 [Puromycin] + CCCCCCCCCC(=O)N[C@@H]1[C@H]([C@@H]([C@H](O[C@H]1OC2=C3C=C4C=C2OC5=C(C=C(C=C5)[C@H]([C@H]6C(=O)N[C@@H](C7=C(C(=CC(=C7)O)OC8[C@H]([C@H]([C@@H]([C@H](O8)CO)O)O)O)C9=C(C=CC(=C9)[C@H](C(=O)N6)NC(=O)[C@@H]4NC(=O)[C@@H]1C2=CC(=CC(=C2)OC2=C(C=CC(=C2)[C@H](C(=O)N[C@H](CC2=CC(=C(O3)C=C2)Cl)C(=O)N1)N)O)O)O)C(=O)O)O[C@H]1[C@@H]([C@H]([C@@H]([C@H](O1)CO)O)O)NC(=O)C)Cl)CO)O)O [Teicoplanin]
main component drawn
Details	Bliss interaction score
B. subtilis 168	0.0835
S. aureus DSM 20231 [2]	-0.0344
S. aureus Newman [3]	0.0617
S. pneumoniae D39V [1]	0.083

fitness, main component drawn
Details	first compound 0.39 µg/mL	first compound 0.78 µg/mL	first compound 1.56 µg/mL
S. aureus DSM 20231 [5], partner 0.1562 µg/mL	0.895	0.997	0.982
S. aureus DSM 20231 [5], partner 0.3125 µg/mL	≥ 1	≥ 1	1
S. aureus DSM 20231 [5], partner 0.625 µg/mL	≥ 1	≥ 1	≥ 1
S. aureus Newman [6], partner 0.1562 µg/mL	≥ 1	≥ 1	≥ 1
S. aureus Newman [6], partner 0.3125 µg/mL	≥ 1	≥ 1	≥ 1
S. aureus Newman [6], partner 0.625 µg/mL	≥ 1	0.888	0.906

fitness, one replicate, main component drawn
Details	partner 0.1562 µg/mL	partner 0.3125 µg/mL	partner 0.62 µg/mL	partner 0.625 µg/mL	partner 1.24 µg/mL	partner 2.48 µg/mL
S. aureus DSM 20231 [5], first compound 3.12 µg/mL	0.94	≥ 1	–	≥ 1	–	–
S. aureus DSM 20231 [5], first compound 6.24 µg/mL	0.664	0.579	–	0.504	–	–
S. aureus Newman [6], first compound 0.39 µg/mL	–	–	0.761	–	0.754	0.457
S. aureus Newman [6], first compound 0.78 µg/mL	–	–	0.815	–	0.755	0.454
S. aureus Newman [6], first compound 1.56 µg/mL	–	–	0.79	–	0.76	0.403
